The target in data set [1] is T1, TRPM7 (Mus musculus, UniProt Q923J1). The arrangement: host or cells: TRPM7-HEK293 and CHOK1-TRPM7 cells as reported earlier. Conditions: cited from earlier work.
A further data set deals with murine TRPM7 (Mus musculus, UniProt Q923J1). The following applies: for dose dependence of inhibition of TRPM7-mediated fura-2 quench by Mn2+: serial dilutions, 15 min pre-incubation.
Data set [2] deals with T1, TRPM7. In words: Whole-cell patch-clamp of TRPM7 currents in HEK293-TRPM7. The following applies: for IC50: read-out: IC50, inhibition of TRPM7 currents. Also on record: FLAG; expressed in transfected cells; host or cells: tetracycline-inducible HEK293 cells (pcDNA4/TO vector). In kind it is cell-based. The method, then: Error bars represent S.E.M. Corresponding I/V relationships are representative currents in response to voltage ramps obtained at 500 s. […] Currents were extracted at +80 mV at 500 s, normalized to the maximal current amplitude before application (200 s), plotted against waixenicin A concentration, and approximated by dose-response fit function (n=8-10). […] Same analysis as in FIG. 9A. Error bars represent S.E.M.
Patch-clamp experiments were performed in the whole-cell configuration at 24° C. All data were acquired with PatchMaster (HEKA) software controlling an EPC-9 amplifier (HEKA, Lambrecht, Germany) and analyzed using FitMaster (HEKA) and IGOR PRO (Wavemetrics, USA). Voltage ramps of 50 ms spanning from −100 to +100 mV were delivered from a holding potential of 0 mV at a rate of 0.5 Hz. Voltages were corrected for liquid junction potentials (10 mV). Currents were filtered at 2.9 kHz and digitized at 100 μs intervals. Current amplitudes were extracted at +80 mV and −80 mV for analysis and display.
To activate TRPM7 currents, intracellular Mg^2+ and Mg-ATP were washed out by perfusion with Mg^2+- and ATP-free internal solution. Whole-cell currents were elicited by voltage ramps from −100 to +100 mV delivered at 0.5 Hz and current amplitudes were extracted at +80 mV and plotted versus time of the experiment. […] The corresponding current-voltage (I/V) relationships are illustrated by representative ramp currents extracted at 500 s. […] Outward and inward TRPM7 currents responded in a similar manner to waixenicin A treatment (FIG. 10A), resulting in the same IC50.
To better mimic physiologic conditions, we clamped the intracellular solution to 700 μM free internal Mg^2+ and only omitted Mg-ATP to achieve TRPM7 activation. […] The corresponding I/V relationships are illustrated by representative ramp currents.
(In general: Patch clamp records ionic current or voltage across a cell membrane.)

[3] abbreviates: read-out: IC50, inhibition of the TRPM7-mediated fura-2 quench by Mn2+, TRPM7-HEK293, 15 min pre-incubation at 37° C., 10 mM MnCl2, endpoint 10 s after MnCl2 addition.

Where two headings read alike, the source gives them in different places.

murine TRPM7, sequence (Q923J1 whole entry): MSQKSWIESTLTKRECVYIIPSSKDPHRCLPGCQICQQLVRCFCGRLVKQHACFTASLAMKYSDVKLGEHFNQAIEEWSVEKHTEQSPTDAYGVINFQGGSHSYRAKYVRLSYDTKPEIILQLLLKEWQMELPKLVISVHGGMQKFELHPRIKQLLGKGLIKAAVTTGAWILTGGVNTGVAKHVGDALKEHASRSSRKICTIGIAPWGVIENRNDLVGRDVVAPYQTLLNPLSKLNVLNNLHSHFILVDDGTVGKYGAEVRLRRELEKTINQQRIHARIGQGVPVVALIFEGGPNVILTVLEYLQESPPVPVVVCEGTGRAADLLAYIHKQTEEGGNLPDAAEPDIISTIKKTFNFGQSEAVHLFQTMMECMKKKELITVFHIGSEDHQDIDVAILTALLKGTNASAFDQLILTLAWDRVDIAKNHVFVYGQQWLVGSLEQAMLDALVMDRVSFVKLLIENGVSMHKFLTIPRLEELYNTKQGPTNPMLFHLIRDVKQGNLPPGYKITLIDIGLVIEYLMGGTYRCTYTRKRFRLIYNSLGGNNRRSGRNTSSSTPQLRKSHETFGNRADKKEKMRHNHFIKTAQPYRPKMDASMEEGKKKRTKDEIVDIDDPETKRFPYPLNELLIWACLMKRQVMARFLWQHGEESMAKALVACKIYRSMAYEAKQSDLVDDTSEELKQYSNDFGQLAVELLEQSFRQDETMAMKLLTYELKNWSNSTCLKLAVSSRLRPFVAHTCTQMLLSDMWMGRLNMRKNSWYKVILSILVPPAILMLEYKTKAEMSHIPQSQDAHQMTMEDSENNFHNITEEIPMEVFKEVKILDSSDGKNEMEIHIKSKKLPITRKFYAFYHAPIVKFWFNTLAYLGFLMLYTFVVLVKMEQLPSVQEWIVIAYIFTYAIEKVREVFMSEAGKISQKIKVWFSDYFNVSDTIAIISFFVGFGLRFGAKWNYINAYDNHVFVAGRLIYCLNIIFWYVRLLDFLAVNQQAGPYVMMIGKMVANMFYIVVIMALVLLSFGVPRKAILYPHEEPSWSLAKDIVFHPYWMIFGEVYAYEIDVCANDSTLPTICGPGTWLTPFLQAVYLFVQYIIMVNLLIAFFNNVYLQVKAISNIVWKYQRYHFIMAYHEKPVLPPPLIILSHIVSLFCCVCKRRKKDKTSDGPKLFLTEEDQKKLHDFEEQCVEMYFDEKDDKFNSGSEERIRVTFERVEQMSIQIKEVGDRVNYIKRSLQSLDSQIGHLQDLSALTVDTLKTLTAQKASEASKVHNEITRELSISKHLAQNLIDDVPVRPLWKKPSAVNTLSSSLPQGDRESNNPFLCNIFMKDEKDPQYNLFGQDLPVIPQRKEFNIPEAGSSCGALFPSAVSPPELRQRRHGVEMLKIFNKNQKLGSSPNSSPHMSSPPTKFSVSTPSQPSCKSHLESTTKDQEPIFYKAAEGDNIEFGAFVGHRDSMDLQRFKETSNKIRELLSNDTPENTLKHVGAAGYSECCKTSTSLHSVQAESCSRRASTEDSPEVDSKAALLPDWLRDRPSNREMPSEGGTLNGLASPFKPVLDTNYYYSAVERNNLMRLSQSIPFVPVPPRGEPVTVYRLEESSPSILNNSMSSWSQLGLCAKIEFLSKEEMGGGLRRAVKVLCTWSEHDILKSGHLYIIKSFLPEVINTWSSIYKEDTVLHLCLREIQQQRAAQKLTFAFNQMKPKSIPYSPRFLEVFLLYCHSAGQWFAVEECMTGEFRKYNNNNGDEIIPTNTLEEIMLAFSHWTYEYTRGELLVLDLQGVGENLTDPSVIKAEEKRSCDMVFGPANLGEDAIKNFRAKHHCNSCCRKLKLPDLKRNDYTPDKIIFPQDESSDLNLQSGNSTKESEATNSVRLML
T1 sequence (Q923J1 whole entry): as above
Description for murine TRPM7: Wild type (non-transfected) human embryonic kidney (WT-HEK293) cells and tetracycline-inducible HEK293 cells, stably transfected with a FLAG-murine TRPM7/pcDNA4/TO construct (TRPM7-HEK293), were cultured in a humidified incubator, at 37° C. and 5% CO2, in DMEM supplemented with 10% FBS and 2 mM L-glutamine. Wild type HEK293 culture medium was supplemented with 100 U/mL penicillin and 0.10 mg/mL streptomycin. TRPM7-HEK293 culture medium was supplemented with 5 μg/mL blasticidin and 0.4 mg/mL zeocin.
TRPM7 channel conductance was monitored using a FlexStation 3 scanning fluorometer (Molecular Devices, Sunnyvale, Calif.) to monitor the Ca^2+-independent (360 nm excitation/510 nm emission) fura-2 quench by Mn^2+ in TRPM7 overexpressing HEK293 cells. The FlexStation 3 measured the fluorescent signal intensity in relative fluorescence units (RFU), at 1.5 s intervals for 60 s using a beam diameter of 1.5-2.0 mm. Following baseline measurements, Mn^2+ was added extracellularly and changes in cytosolic [Mn^2+] were monitored as the loss of relative fluorescence caused by fura-2 quenching. TRPM7-HEK293 cells (30,000, 60,000 or 120,000 cells/well) were plated in poly-L-lysine coated, black clear-bottom 96-well plates (Greiner Bio-One, Monroe, N.C.). Subsequent TRPM7-expression was induced 2-3 h post plating by the addition of 1 μg/mL tetracycline. The culture medium was completely removed at 16-18 h post induction and replaced with the following fura-2 loading-buffer: KRH buffer supplemented with 2 μM fura-2-AM, with or without 2 mM probenecid, and with or without 0.1-0.3% pluronic F-127. Following variable incubation times (30, 45 and 60 min at 25 or 37° C.) the loading buffer was removed and replaced with assay buffer (KRH). The plates were then transferred to a room temperature (25° C.) or pre-warmed (37° C.) FlexStation which also contained a clear V-bottom 96-well compound plate (Greiner Bio-One) with vehicle or appropriate test substance solutions diluted with KRH. Cells were initially incubated for 15 min with the appropriate test substance solutions. Just prior to the addition of 1 or 10 mM MnCl2 the baseline fluorescence was recorded for 20 s. The Ca^2+-independent, TRPM7-mediated fura-2 quench by Mn^2+ was then recorded for 40 s.
Fluorescence data was collected in SoftMax Pro (Molecular Devices) and processed in Microsoft Excel 2007. Replicate fluorescence traces (time vs. intensity) were averaged and the Z′-factors were calculated. Mean, standard deviation (sdev), and Z′-factors at each time point were plotted using IGOR PRO (Wavemetrics). […] These values were background-corrected (WT-HEK293 signal subtracted) and normalized to vehicle controls.
TRPM7-HEK293 cells and HEK293 cells were plated at 60,000 cells/well. Cells were incubated at 37° C. for 60 min with KRH containing 2 mM probenecid, 0.1% pluronic F-127, and 2 μM fura-2-AM. After a wash step, the cells were pre-incubated with LaCl3 (serial diluted 2:1 from 7.0 mM to 9.6 μM) or 2-APB (serial diluted 2:1 from 500-0.69 μM) at 37° C. for 15 min during baseline measurements.

As a reminder, the IC50 is the concentration at which inhibition is half-maximal. Consider `NCCOB(c1ccccc1)c1ccccc1` [2-APB, 2-aminoethoxydiphenyl borate], for which, on TRPM7 [1] (100 μM, divalent-free extracellular solutions, TRPM7-HEK293), the “inhibition of TRPM7 mediated inward current” value is reported as 77%. The IC50 is 160 ± 14 µM at TRPM7 [1] (whole-cell recordings, TRPM7-HEK293 and CHOK1-TRPM7 cells, read-out: IC50, TRPM7 mediated outward current); 56 µM on murine TRPM7 (setting [3]). Moreover, the “stability of stock solution in cold storage” value (-20° C., 50 mM in MeOH) is reported as “apparent compound degradation over the course of one week”. Moreover, the “stability of dried film, vacuum packed aliquots” value (stored at -20° C.) is given as “only remained fully potent when used within a two month period”. The “dose dependence of inhibition of TRPM7-mediated fura-2 quench by Mn2+” value (from here on “dose dependence of inhibition … by Mn2+”) on murine TRPM7 is given as “dose dependent inhibition”.

Turning to `[Cl][La]([Cl])[Cl]` [La^3+, LaCl3], the “block of channel conductance” value on TRPM7 [1] (10 μM) was “ineffective”. On TRPM7 [1] (10 mM), the “block of inward TRPM7-mediated currents” value is “almost completely blocked”. Moreover, the “effect on Mn2+-induced fluorescence quench” value at murine TRPM7 (FIG. 8A, 10 mM MnCl2, HEK293-TRPM7) is recorded as “reduced Mn^2+-induced fluorescence quench”. Further, at murine TRPM7 (setting [3]), the concentration for half-maximal inhibition (IC50) was 760 µM. In addition, the “dose dependence of inhibition … by Mn2+” value on murine TRPM7 is reported as “dose dependent inhibition”.

Turning to `C=C1CC/C=C(\C)CC[C@@H]2C([C@H](C/C=C(\C)COC(C)=O)OC(C)=O)=CO[C@H](OC(C)=O)[C@@H]12` [waixenicin A], the half-maximal inhibitory concentration (IC50) was 7 µM at TRPM7 [2] (0 [Mg2+]i, outward currents at +80 mV at 500 s); 0.016 µM at TRPM7 [2] (700 μM free internal Mg2+); 12 µM at murine TRPM7 (read-out: IC50 of the maximal slope of the Mn2+ quench, HEK293-TRPM7, 15 min incubation before 10 mM MnCl2). Moreover, the “inhibition of TRPM7 currents” value at TRPM7 [2] (10 μM for 300 s, +80 mV, Mg2+- and ATP-free internal solution) is on record as “approximately 50%”. The “TRPM7 current density after application” value at TRPM7 [2] (10 μM for 300 s, +80 mV, Mg2+- and ATP-free internal solution, plateau about 130 pA/pF before) amounted to 67 pA/pF. The “block of TRPM7 current” value on TRPM7 [2] (10 μM, 700 μM free internal Mg2+, Mg-ATP omitted) is given as “completely blocked the current”. Also, at TRPM7 [2] (washout for another 300 s), the “reversibility of inhibitory effect on washout” value is listed as “failed to reverse its inhibitory effect”. Besides, the “dose dependence of inhibition … by Mn2+” value on murine TRPM7 was “dose-dependent manner”.
